From patent US12612661B2, “Compositions and methods for assessing the efficacy of inhibitors of neurotransmitter transporters” (DENOVO BIOPHARMA LLC, priority 2020, dated 2026)

Experiments:
C. elegans = details: oxidative stress; ANK3/unc-44 expression necessary; cited from earlier work
SERT = target: T1, SERT (Homo sapiens, UniProt P31645); experiment: In vitro competition binding, membranes from HEK cell lines overexpressing SERT; details: radioligand at its Kd concentration; IC50 only in FIG. 1A table
T1 construct: expressed in transfected cells; host or cells: HEK cell line overexpressing the transporter; membranes
T1 sequence (P31645 whole entry): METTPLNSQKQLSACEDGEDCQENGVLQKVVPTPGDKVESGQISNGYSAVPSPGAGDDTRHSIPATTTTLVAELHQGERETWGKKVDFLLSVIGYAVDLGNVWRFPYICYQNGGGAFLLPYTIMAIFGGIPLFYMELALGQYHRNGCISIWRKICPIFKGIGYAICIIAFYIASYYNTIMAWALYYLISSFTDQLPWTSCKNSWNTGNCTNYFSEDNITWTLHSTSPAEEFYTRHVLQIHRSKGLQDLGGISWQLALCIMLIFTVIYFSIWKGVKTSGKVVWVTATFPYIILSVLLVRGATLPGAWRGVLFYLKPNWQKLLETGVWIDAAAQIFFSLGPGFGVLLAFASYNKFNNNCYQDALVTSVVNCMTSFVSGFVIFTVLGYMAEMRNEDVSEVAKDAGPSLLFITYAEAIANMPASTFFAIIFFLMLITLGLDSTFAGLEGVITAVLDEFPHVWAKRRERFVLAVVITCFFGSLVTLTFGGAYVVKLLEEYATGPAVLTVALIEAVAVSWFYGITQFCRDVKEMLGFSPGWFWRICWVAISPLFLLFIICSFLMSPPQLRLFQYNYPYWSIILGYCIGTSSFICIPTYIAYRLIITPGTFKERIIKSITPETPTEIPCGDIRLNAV
Text: (§1) FIG. 1 depicts exemplary DB104 structure, preclinical result, and clinical trial design. […] In vitro Binding Result: Competition binding experiments were utilized to determine the in vitro binding potencies (IC50 values) of BMS-820836 for SERT, DAT, and NET. Membranes prepared from human embryonic kidney (HEK) cell lines overexpressing each transporter were employed in the assays. Radioligands were used at their respective affinity constant (Kd) concentrations for each transporter to enable direct comparisons of the IC50 values between assays. Monoamine Reupdate inhibition: Cell-based assays were used to determine the ability of BMS-820836 to inhibit reuptake of 3H-labeled dopamine ([^3H]DA), norepinephrine ([^3H]NE), and serotonin ([^3H]5-HT).

DAT = target: T2, DAT (Homo sapiens, UniProt Q01959); experiment: In vitro competition binding, membranes from HEK cell lines overexpressing DAT; details: radioligand at its Kd concentration; IC50 only in FIG. 1A table
T2 construct: expressed in transfected cells; host or cells: HEK cell line overexpressing the transporter; membranes
T2 sequence (Q01959 whole entry): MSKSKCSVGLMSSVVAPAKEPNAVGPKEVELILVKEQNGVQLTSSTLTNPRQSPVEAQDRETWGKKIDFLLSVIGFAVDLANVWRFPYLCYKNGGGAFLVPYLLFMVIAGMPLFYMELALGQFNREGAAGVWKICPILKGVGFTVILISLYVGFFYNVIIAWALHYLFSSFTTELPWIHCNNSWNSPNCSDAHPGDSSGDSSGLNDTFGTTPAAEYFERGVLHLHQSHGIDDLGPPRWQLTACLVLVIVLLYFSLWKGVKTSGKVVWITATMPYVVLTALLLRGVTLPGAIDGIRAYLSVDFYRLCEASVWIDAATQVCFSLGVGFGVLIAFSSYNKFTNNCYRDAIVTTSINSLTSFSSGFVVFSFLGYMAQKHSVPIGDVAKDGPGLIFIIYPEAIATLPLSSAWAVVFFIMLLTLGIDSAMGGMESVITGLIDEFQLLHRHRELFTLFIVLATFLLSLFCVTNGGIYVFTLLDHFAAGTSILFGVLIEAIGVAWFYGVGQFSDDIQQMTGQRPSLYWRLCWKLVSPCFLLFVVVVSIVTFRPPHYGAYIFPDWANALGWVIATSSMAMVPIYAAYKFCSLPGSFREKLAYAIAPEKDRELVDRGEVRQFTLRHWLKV
Text: as §1

NET = target: T3, NET (Homo sapiens, UniProt P23975); experiment: In vitro competition binding, membranes from HEK cell lines overexpressing NET; details: radioligand at its Kd concentration; IC50 only in FIG. 1A table
T3 construct: expressed in transfected cells; host or cells: HEK cell line overexpressing the transporter; membranes
T3 sequence (P23975 whole entry): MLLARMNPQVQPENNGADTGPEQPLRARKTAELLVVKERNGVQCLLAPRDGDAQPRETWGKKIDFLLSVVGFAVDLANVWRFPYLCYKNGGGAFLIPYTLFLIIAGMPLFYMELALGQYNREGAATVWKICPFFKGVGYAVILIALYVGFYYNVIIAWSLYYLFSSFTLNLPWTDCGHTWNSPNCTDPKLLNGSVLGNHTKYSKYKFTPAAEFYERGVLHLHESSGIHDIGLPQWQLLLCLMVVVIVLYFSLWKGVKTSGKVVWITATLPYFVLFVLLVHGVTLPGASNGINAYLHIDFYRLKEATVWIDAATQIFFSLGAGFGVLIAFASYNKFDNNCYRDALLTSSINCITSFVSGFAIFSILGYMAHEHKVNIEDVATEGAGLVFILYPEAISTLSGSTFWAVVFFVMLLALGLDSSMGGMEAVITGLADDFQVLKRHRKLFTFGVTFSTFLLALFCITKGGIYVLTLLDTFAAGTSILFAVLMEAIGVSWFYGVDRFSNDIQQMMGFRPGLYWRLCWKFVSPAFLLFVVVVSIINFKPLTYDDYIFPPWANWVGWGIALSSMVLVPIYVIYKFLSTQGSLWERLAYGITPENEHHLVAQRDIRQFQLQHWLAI
Text: as §1

HEK293/hDAT cells = target: T4, HEK293/hDAT cells (Homo sapiens, UniProt Q01959); experiment: Cell-based monoamine reuptake inhibition, [3H]DA uptake; details: IC50 only in FIG. 1A table
T4 construct: expressed in transfected cells; host or cells: HEK293/hDAT cells
T4 sequence (Q01959 whole entry): as the sequence (Q01959 whole entry) above
Text: as §1

patients with MDD [1] = experiment: Phase 2b efficacy studies CN162006 and CN162007, MADRS total score, analysed by rs12217173 genotype; type: in vivo, human
Description: The Phase 2b program for DB104 consists of two efficacy studies (CN162006 and CN162007), and both efficacy studies have a similar design and include patients with MDD. CN162006 is flexible-dose study where patients with a history of inadequate response to at least one but less than four antidepressants and one prospective treatment (duloxetine) are switched to flexibly-dosed DB104 (0.5-2 mg/d) or remain on duloxetine (Bhagwagar Z. et al. 2015). CN162007 is a fixed dose, dose-response study where patients with a history of inadequate response to at least one but less than four antidepressants and one prospective treatment (duloxetine/escitalopram) are switched to fixed doses of DB104 (0.25, 0.5, 1, 2 mg/day) or remain on duloxetine/escitalopram (FIG. 1B and 1C). […] (Bhagwagar Z. et al. 2015.)
We were provided with a large number of whole blood samples that were collected from the above phase II clinical trials (CN162-006 and CN162-007), and these samples corresponded to 233 unique patients that had received DB104 and completed the trial adequately to measure their response to treatment. Thus, germline DNA samples extracted from blood of patients enrolled in these two trials were used to identify pharmacogenetic biomarker for DB104. For the discovery phase, 188 samples were selected, and the remaining 45 samples would be left for validating any potential SNPs using PCR. The discover and validation datasets were balanced for race and dose/trial number. In discovery phase, 188 samples from DB104 treatment group were genotyped using the Illumina 4.5 million whole genome SNP arrays. Two (2) out of the 188 samples failed QC and were excluded from the genome-wide analysis but added to the validation set. From this genome wide screen from 186 samples, we have identified SNP rs12217173 which has a p-value of 6.609×10^−8, which is very close to genome-wide significance cut-off of 5×10^−8, especially given the limited sample size of this study.
To confirm the finding of rs12217173 as possible pharmacogenetic biomarker to predict DB104 efficacy, we next measured its genotype with Taqman SNP assay using the validation set which consists 47 patients, including two additional samples failed in genome-wide scan QC but passed real time PCR QC. […] Thus, patients with GG genotype were defined as the responders and patients carrying AA or AG genotype are defined as non-responders to DB104 treatment.
To examine whether rs12217173 is merely a prognostic biomarker for the disease instead of specific pharmacogenomic biomarker for DB104, DNA samples from 182 patients from the control group treated with duloxetine/escitalopram were genotyped using the Taqman SNP assays. […] Therefore, rs12217173 associated improvement in MADRS is related to DB104 treatment, and rs12217173 appears to be a pharmacogenomics biomarker for predicting DB104's anti-depression activity, and thus it is named as DGM4 (Denovo Genomic Marker 4).
CN162006 is flexible-dose study where DB104 doses ranged from 0.5-2 mg/d, and CN162007 is a fixed dose, dose-response study where patients were treated with doses of DB104 at 0.25, 0.5, 1, or 2 mg/day. Due to the limitation on samples available for the genome-wide study, the analysis described in previous section was not treating patients taking different doses of DB104 differently. In order to refine our analysis, we have further evaluated the effect of DB104 dose in these two studies. In CN162006, the mean and median average dose per day is 1.5 mg, and 94% patients received doses of 1 to 2 mg per day.

patients with MDD [2] = details: overall population, CN162006 and CN162007; cited from earlier work
[3] = phase 2 clinical studies; cited from earlier work
[4] = GG genotype, week 5 and 6, excluding 0.25 and 0.5 mg

| saturation of SERT binding sites in competition binding (SERT) | saturation of DAT binding sites in competition binding (DAT) | saturation of NET binding sites in competition binding (NET) | inhibition of uptake of [3H]DA (HEK293/hDAT cells) | SMILES | lifespan (C. elegans) | efficacy by dose in patients carrying GG genotype (patients with MDD [1]; CN162007, 0.25, 0.5, 1, 2 mg/day) | MADRS Remission Rate vs SOC treatment group (patients with MDD [1]; [4]) | MADRS Response Rate vs SOC treatment group (patients with MDD [1]; [4]) | MADRS total score reduction vs SOC treatment group (patients with MDD [1]; [4]) | MADRS score change, GG vs AA or AG genotype (patients with MDD [1]; discovery and validation datasets combined) | improvement on MADRS change from the baseline, GG vs AA or AG genotype and vs standard of care (patients with MDD [1]; discovery set (186 patients), GG allele of rs12217173) | MADRS, DB104 treatment group vs SOC treatment group (patients with MDD [1]; pooled 006 and 007 at 1 mg and 2 mg, all genotypes, any time point) | MADRS score reduction from the baseline (patients with MDD [1]; validation set (47 patients), DB104-treated patients carrying GG at rs12217173) [points] | MADRS score reduction from the baseline (patients with MDD [1]; validation set, DB104-treated patients carrying AA or AG genotype) | MADRS total score change from baseline at week 6 (primary endpoint), DB104 vs. continuation of duloxetine/escitalopram (patients with MDD [2]) | discontinuations due to adverse events [3] | tolerability [3] |
| --- | --- | --- | --- | --- | --- | --- | --- | --- | --- | --- | --- | --- | --- | --- | --- | --- | --- |
|  |  |  |  | CN1CCN2c3ccccc3Cc3ccccc3C2C1 (centres unmarked) [mianserin] | increase lifespan |  |  |  |  |  |  |  |  |  |  |  |  |
| completely saturated | completely saturated | completely saturated | potently and completely inhibited | CN1Cc2cc(-c3ccc(N)nn3)ccc2[C@H](c2ccc3ccccc3c2)C1 [DB104, liafensine] |  | 1 mg and 2 mg group exhibited similar efficacy, and both are much better than 0.25 mg and 0.5 mg group | statistical significance | statistical significance | statistical significance | much improved MADRS score change | much better improvement | no significant differences | ~16 | eight | neither study demonstrated significant improvement | no evidence of dose-dependent discontinuations due to adverse events | well tolerated |
